Reference: US11583507B2, “Direct AMPK activator compounds” (SOCIETE DES PRODUITS NESTLE S.A., priority 2018, dated 2023)

Experiments:
AMPKα1β1γ1 (111) = target: T1, AMPKα1β1γ1 (111) (Homo sapiens, UniProt P54619+Q13131+Q9Y478); assay: AMPK in vitro activity assay (HTRF-KinEASE), α1-containing complex; format: biochemical; conditions: fold activation vs complex without compound
T1 construct: His; made in house; host or cells: bacteria
Description: (§1) Lusianthridin (CAS 87530-30-1) was isolated from Thunia alba fruit. It was sourced from Analyticon (NP-012362). The plant was purchased through Analyticon's biomaterial supplier in 2003. The country of origin is Nepal. The AMPK heterotrimers were expressed in bacteria and purified through the His-α subunit by nickel purification. AMPK complexes were purified through gel filtration and phosphorylated by incubation with CaMKKβ, and further purified with a final gel filtration purification step. Phosphorylated purified AMPK was incubated with varying concentrations of ligand for 30 mins using substrate and reagents from the HTRF-KinEASE Cisbio assay kit (STK S1 Kit). Phosphorylation of the substrate was measured by incubating with donor and acceptor antibodies for 2 h at room temperature as per the manufacturer's protocol (and Coulerie et al., (2016) PMID: 27792327) and phosphorylated peptide detected by performing HTRF. The 665 nm/620 nm ratio was determined and the results are plotted as fold activation compared to the respective AMPK complex without any compound.

[1] = test system: AMPK α2β1γ1 ΔCBM mutant (211 ΔCBM); assay: AMPK in vitro activity assay (HTRF-KinEASE), ΔCBM mutant; format: biochemical; conditions: carbohydrate-binding module deleted
Description: as §1

[2] = target: T2, AMPK α2β1γ1 S108A mutant (211 S108A) (Homo sapiens, UniProt P54619+P54646+Q9Y478, S108A); assay: AMPK in vitro activity assay (HTRF-KinEASE), β1 S108A mutant; format: biochemical
T2 construct: His; made in house; host or cells: bacteria
Description: as §1

primary hepatocytes = assay: Lipogenesis ([1-14C]-acetate incorporation into fatty acids) in primary hepatocytes; format: cell-based, mouse; conditions: 1 h at 37 C, varying concentrations
Description: Hepatocyte isolation: The liver was first perfused with 50 ml perfusion buffer (Krebs-Hepes buffer with […] EDTA), followed with 50 ml collagenase A buffer (Krebs-Hepes buffer with 5 mM CaCl2 and 0.5 mg/ml collagenase). […] Hepatocytes were left to attach (3-4 h) and cultured overnight in M199 supplemented with antibiotics and 100 nM dexamethasone. Cells were used for experiments the following morning. For primary hepatocyte isolation see Example 4. For lipogenesis measurements in primary hepatocytes, cells were seeded at 600 K cells per well in a 6-well plate overnight. Media was replaced with fresh M199 media alone for 2 hours prior to incubation with varying concentrations of Lusianthridin for 1 h at 37 C, in the presence of [1-^14C]-acetate. The incorporation of [^14C] into fatty acids was determined in the lower organic layer after separation from the aqueous phase. […] Lipogenesis is controlled by the AMPK substrate ACC, and phosphorylation and inhibition of ACC by AMPK, leads to a decrease in lipogenesis. Lipogenesis was measured in primary hepatocytes by determining the incorporation of ^14C-labelled acetate into fatty acids. Lipogenesis was monitored in the presence or absence of varying concentrations of Lusianthridin for 1 h at 37 C. […] This observation is consistent with its ability to activate AMPK in hepatocytes, which leads to the phosphorylation and inhibition of ACC.

C2C12 AMPKα1α2+/+ cells = assay: Glucose uptake (3H-2-deoxyglucose) in differentiated C2C12 AMPKα1α2+/+ cells; format: cell-based, murine
Excerpt: C2C12 AMPK α1α2 double knockout cell lines were generated by transient transfection of wild type cells with plasmids containing Cas9 enzyme linked to green fluorescent protein expression and Cas9 guide RNA sequences targeting the murine AMPK α1 subunit (sc-430618, SantaCruz) and the murine AMPK α2 subunit (sc-430803, SantaCruz). Cells positive for green fluorescent protein expression were single cell sorted by flow cytometry into 96-well plates containing growth medium and analysed for loss of AMPK signaling following expansion of the clones.
Differentiated C2C12 AMPKα1α2+/+ and AMPKα1α2−/− cells were treated with either vehicle (0.2% DMSO), 30 μM or 100 μM Lusianthridin for 1 h at 37° C. […] Finally, differentiated C2C12 AMPKα1α2+/+ and AMPKα1α2−/− cells were treated with either vehicle (0.2% DMSO) or 100 μM Lusianthridin in the presence or absence of 15 nM Wortmanin for 1 h at 37° C. For the Wortmanin experiments, differentiated C2C12 cells were pre-incubated with DMSO or Wortmanin for 1 h prior to treatment.
Glucose uptake was determined by monitoring the uptake of 3H-2-deoxyglucose into cells. C2C12 AMPKα1α2+/+ and AMPKα1α2−/− cells were maintained in DMEM GlutaMAX supplemented with 20% (vol/vol) FBS and 100 U/ml penicillin G, and 100 μg/ml streptomycin. […] Cells were lysed and the quantity of ^3H determined in these samples using a scintillation counter.

[3] = test system: AMPK β1 WT (phosphorylation of ACC); assay: pACC (HTRF and western blot) in AMPKβ1/β2 double knockout U2-OS Flp-In T-Rex cells stably expressing β1 WT; format: cell-based, human
Excerpt: (§2) AMPKβ1/β2 double knockout U2-OS Flp-In™ T-Rex™ cell lines were generated by Horizon Discovery (Cambridge, UK). Cells were genotyped and analysed by western blotting to confirm that there was a complete knockout of AMPKβ1/β2. We took these AMPKβ1/β2 double knockout cells, and re-introduced the expression of human β1 wild-type (WT) or a β1 Serine 108 to alanine mutation (S108A). This was achieved using the Flp-In™ system (Invitrogen) present in this cell line and stable cells expressing β1 WT or a β1 S108A mutant were generated according to the manufacturers' protocols. Re-expression of the β1 subunit was confirmed by western blot analysis.
(§3) Cells stably expressing β1 WT or a β1 S108A mutant were treated with varying concentrations of Lusianthridin and subjected to the pACC HTRF (Cisbio) assay or western blot analysis to determine phosphorylation of the AMPK substrate, ACC, in cells lysates. Western blots were quantified using the LI-COR odyssey system and shown as the ratio of the antibody signal from pACC divided by total ACC.

[4] = test system: AMPK β1 S108A mutant (phosphorylation of ACC); assay: pACC (HTRF and western blot) in AMPKβ1/β2 double knockout U2-OS Flp-In T-Rex cells stably expressing β1 S108A mutant; format: cell-based, human
Excerpt: as §2, §3

[5] = varying concentrations, 30 mins at 37 C

T1 sequence (Q13131 whole entry): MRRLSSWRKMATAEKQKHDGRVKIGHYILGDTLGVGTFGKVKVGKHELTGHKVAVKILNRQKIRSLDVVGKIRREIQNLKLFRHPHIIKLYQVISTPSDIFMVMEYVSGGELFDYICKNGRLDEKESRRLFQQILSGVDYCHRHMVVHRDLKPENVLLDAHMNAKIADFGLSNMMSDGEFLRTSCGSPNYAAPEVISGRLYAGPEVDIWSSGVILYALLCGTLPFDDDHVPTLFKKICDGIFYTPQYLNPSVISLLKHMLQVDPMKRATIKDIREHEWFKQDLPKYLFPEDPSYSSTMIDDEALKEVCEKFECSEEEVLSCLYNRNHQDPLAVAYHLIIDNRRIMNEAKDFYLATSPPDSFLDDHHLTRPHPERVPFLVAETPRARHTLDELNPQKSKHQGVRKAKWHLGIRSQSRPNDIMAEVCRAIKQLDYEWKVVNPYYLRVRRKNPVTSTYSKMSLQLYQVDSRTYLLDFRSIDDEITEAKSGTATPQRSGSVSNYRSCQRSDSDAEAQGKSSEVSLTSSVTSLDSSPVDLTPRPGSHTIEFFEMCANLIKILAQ
T1 sequence (Q9Y478 whole entry): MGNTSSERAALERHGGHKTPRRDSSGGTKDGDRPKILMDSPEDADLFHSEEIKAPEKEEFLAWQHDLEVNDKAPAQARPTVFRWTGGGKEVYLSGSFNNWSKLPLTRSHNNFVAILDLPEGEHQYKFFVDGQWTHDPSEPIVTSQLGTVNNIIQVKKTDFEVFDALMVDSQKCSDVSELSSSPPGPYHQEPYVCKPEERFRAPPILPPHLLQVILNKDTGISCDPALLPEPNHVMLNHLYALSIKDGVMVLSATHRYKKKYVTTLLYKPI
T1 sequence (P54619 whole entry): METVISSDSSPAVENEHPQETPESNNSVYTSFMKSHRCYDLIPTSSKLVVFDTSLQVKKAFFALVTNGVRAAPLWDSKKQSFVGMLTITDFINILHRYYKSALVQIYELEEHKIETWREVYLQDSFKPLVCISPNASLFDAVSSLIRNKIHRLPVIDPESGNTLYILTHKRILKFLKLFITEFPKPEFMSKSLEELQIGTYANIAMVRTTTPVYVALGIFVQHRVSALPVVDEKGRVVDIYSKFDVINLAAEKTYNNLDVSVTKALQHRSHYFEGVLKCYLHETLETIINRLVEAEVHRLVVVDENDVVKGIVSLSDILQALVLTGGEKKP
T2 sequence (P54646 whole entry): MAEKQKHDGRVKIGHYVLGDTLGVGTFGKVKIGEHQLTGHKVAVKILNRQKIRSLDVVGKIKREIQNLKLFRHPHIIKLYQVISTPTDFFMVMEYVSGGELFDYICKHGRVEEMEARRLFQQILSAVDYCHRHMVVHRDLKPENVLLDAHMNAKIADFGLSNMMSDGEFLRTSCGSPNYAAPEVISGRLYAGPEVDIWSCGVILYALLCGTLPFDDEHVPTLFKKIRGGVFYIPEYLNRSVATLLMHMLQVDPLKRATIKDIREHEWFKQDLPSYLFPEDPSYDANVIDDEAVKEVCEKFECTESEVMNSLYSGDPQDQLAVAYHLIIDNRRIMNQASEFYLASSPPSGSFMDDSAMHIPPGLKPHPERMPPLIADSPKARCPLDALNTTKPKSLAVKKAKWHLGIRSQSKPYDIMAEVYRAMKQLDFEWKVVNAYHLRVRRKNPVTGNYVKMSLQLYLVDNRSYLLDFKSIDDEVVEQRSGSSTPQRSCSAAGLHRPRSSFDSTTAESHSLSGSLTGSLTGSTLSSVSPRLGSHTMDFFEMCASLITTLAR
T2 sequence (Q9Y478 whole entry S108A): as the sequence (Q9Y478 whole entry) above, with S108A counted along it
T2 sequence (P54619 whole entry): as the sequence (P54619 whole entry) above

SMILES: COc1cc(O)c2c(c1)CCc1cc(O)ccc1-2 [Lusianthridin, 7-Methoxy-9,10-dihydrophenanthrene-2,5-diol]
- activation of bacterially-expressed AMPKα1β1γ1 complexes (AMPKα1β1γ1 (111)): Activates
- activation of α2β1γ1 ΔCBM mutant [1]: does not activate
- activation of AMPK complexes with the β1 S108A mutation [2]: does not activate
- rate of lipogenesis (DPM per μg of protein) (primary hepatocytes): inhibit lipogenesis in a dose-dependent manner
- glucose uptake (fold change relative to control) (C2C12 AMPKα1α2+/+ cells; C2C12 AMPKα1α2+/+, 30 or 100 μM Lusianthridin, 300 nM Insulin, 1 h at 37° C): increase in glucose uptake
- effect of Wortmanin on stimulated glucose uptake (C2C12 AMPKα1α2+/+ cells; in the presence of 15 nM Wortmanin (1 h pre-incubation), 100 μM Lusianthridin or 300 nM Insulin, 1 h): no effect
- pACC (HTRF and western blot, pACC/total ACC) ([3]; FIGS. 19 and 20): dose-dependently increase pACC
- pACC (HTRF assay) [3, 5]: capable of activating
- phosphorylation of ACC (western blot) [4]: did not increase phosphorylation of ACC
- pACC (HTRF assay) [4, 5]: did not increase pACC
